Earlier results, collected in patent publication US9789076B2, “Bolus dose of hydroxycitric acid with glycerol” (GLYKON TECHNOLOGIES GROUP, LLC, priority 2014, dated 2017).
Like-named read-outs stand apart in the source and are kept apart here.

Columns and labels:
[1] = rats, oral, 30 days
[2] = 0.33 mmoles/kg twice daily (total 0.66 mmoles/kg)

SMILES	inhibition of acetate or ethanol incorporation into fatty acid synthesis (fatty acid synthesis)	food consumption, percent of controls [1, 2] [%]	weight gain, percent of controls [1, 2] [%]	food consumption, percent of controls ([1]; 2.63 mmoles/kg as bolus) [%]	weight gain, percent of controls ([1]; 2.63 mmoles/kg as bolus) [%]	lowest effect dosage ([1]; given twice daily) [mmoles/kg body weight]
O=C(O)CC(O)(C(=O)O)C(O)C(=O)O (single isomer, unassigned; (-)) [hydroxycitrate, (−)-Hydroxycitric acid]	no hydroxycitrate inhibition					
O=C([O-])CC(O)(C(=O)[O-])C(O)C(=O)[O-].[Na+].[Na+].[Na+] (stereo not drawn) [trisodium hydroxycitrate]		87	62	83	64	0.33
